Results on 3 molecules are retold here after article PMC4350872, “The Inhibitory Effect of Kakkonto, Japanese Traditional (Kampo) Medicine, on Brain Penetration of Oseltamivir Carboxylate in Mice with Reduced Blood-Brain Barrier Function” (Evidence-based Complementary and Alternative Medicine : eCAM, 2015).

Like-named read-outs stand apart in the source and are kept apart here.

Data set [1] can be described thus: Plasma and cerebral concentrations of oseltamivir and OC after oral administration of OP. The data set is classed as in vivo, C57BL/6 mice. Particulars: OP 300 mg/kg p.o.; for AUC(0-t): C57BL/6, mouse, plasma, po, 300 mg/kg, read-out: AUC0–120 Plasma (converted); for mean brain-to-plasma ratio (BPR): mean AUCbrain / mean AUCplasma. As to the method: OP (300 mg/kg in 0.2 mL saline) was orally administered 4 h after the third injection of LPS. […] The brain tissue of mice was rapidly removed after the decapitation and rinsed in ice-cold PBS. Three to 9 mice were used at each sampling time point in each group.
Oseltamivir and OC levels in plasma and brain tissues were quantified by HPLC, as described in our previous study. Blood samples collected from the jugular vein were centrifuged to obtain plasma at 4°C (2,000 ×g, 15 min). Brain tissue samples were homogenized in 3.5 mL PBS/g tissue and centrifuged at 4°C (12,000 ×g, 10 min). Oseltamivir and OC were extracted from the resulting supernatant by solid-phase extraction (SPE) using Oasis MCX extraction cartridges (1 cc/30 mg, Waters, Milford, MA, USA) conditioned with 1 mL of methanol followed by 1 mL water. The supernatant sample (1 mL) was drawn through the cartridge and the cartridge was washed with 1 mL of 2% formic acid/water, followed by methanol and 0.005% ammonium hydroxide/methanol. The analytes were eluted with 3 mL of 5% ammonium hydroxide/methanol and evaporated to dryness under nitrogen at 40°C.
The HPLC system consisted of a pump (LC-10ADvp, Shimadzu Corp., Kyoto, Japan), degasser (DGU-12A, Shimadzu Corp.), column (Zorbax SB-CN 5 μm particle size, 4.6 × 250 mm, Agilent Technologies, CA, USA), column oven (CTO-10A, Shimadzu Corp.), and UV absorbance detector (SPD-10AV, Shimadzu Corp.). […] The column temperature was 50°C and the detector was operated at absorbance wavelength of 215 nm.

The subject of data set [2] is organic anion transporter (OAT) 3. The arrangement: method as in PMID 19029202. Particulars: cited from earlier work.
Data set [3] concerns multidrug resistance protein (MRP) 4. Set-up: method as in PMID 19029202. Particulars: cited from earlier work.
Details of data set [4]: method as in PMID 23881998. Particulars: FDA Adverse Event Reporting System 1999 to 2011; cited from earlier work.
The test system of the next data set is P-glycoprotein (P-gp). Set-up: method as in PMID 19029202. Particulars: cited from earlier work.
[5] abbreviates: Kak group (LPS + kakkonto 125 mg/kg p.o.).
The mark [6] stands for this setting: Mao group (LPS + maoto 125 mg/kg p.o.).

For `CCC(CC)O[C@@H]1C=C(C(=O)O)C[C@H](N)[C@H]1NC(C)=O` [OC, oseltamivir carboxylate], the values for the AUC(0-t) in data set [1] (Con group (LPS + saline p.o.)), in data set [1] (setting [5]) and in data set [1] (setting [6]) were 12700 ng·h/mL, 20000 ng·h/mL and 14300 ng·h/mL, respectively. For the same molecule, the “AUC0–120 Brain” value in data set [1] (Con group (LPS + saline p.o.)) was 16.06 min·μg/g brain; in data set [1] (setting [5]) it was 5.98 min·μg/g brain; in data set [1] (setting [6]), 18.95 min·μg/g brain. Besides, the “mean brain-to-plasma ratio (BPR)” value in data set [1] (Con group) came to 21.08 μL/g brain; in data set [1] (Kak group) it was 4.98 μL/g brain; in data set [1] (Mao group), 22.12 μL/g brain. Further, the “substrate for OAT3” value in data set [2] is given as “substrate”. Further, the “substrate for MRP4” value in data set [3] is “substrate”.
As for `CCOC(=O)C1=C[C@@H](OC(CC)CC)[C@H](NC(C)=O)[C@@H](N)C1` [Tamiflu, Oseltamivir phosphate], in data set [4], the “odds ratio, abnormal behavior” value is 29.35 and the “odds ratio, delirium” value is reported as 13.50.
Consider `CCOC(=O)C1=C[C@@H](OC(CC)CC)[C@H](NC(C)=O)[C@@H](N)C1` [Oseltamivir, oseltamivir], for which the AUC(0-t) in data set [1] (Con group (LPS + saline p.o.)) was 32500 ng·h/mL; in data set [1] (setting [5]), 84400 ng·h/mL; in data set [1] (setting [6]), 62500 ng·h/mL. The “AUC0–120 Brain” value in data set [1] (Con group (LPS + saline p.o.)) is on record as 79.35 min·μg/g brain; in data set [1] (setting [5]), 200.21 min·μg/g brain; in data set [1] (setting [6]), 119.92 min·μg/g brain. For the same molecule, the figures for the “mean brain-to-plasma ratio (BPR)” value in data set [1] (Con group), in data set [1] (Kak group) and in data set [1] (Mao group) were 40.70 μL/g brain, 39.52 μL/g brain and 31.98 μL/g brain, respectively. Also, the “substrate for efflux transporter P-gp” value in the data set with P-glycoprotein (P-gp) is “substrate”.
